The structures appear in SMILES notation. Values after ≈ are worked out from the molar mass of the structure shown.

MIC and Solubility data for one compound are collected here from US4517296A, “Antibiotic acmimycin and its production” (Toyo Jozo Kabushiki Kaisha, priority 1982, dated 1985).

In data set [1] the test system is Proteus morganii 0239. Nature of the data set: MIC by agar dilution method, Proteus morganii 0239. In kind it is cell-based. Conditions: Morganella morganii, read-out: minimum inhibitory concentration (MIC).
In data set [2] the test system is Pseudo. aeruginosa IAM1095. As to the kind of experiment: MIC by agar dilution method, Pseudo. aeruginosa IAM1095. In kind it is cell-based. Conditions: Pseudomonas aeruginosa, read-out: minimum inhibitory concentration (MIC).
Data set [3] deals with E. coli NIHJ-JC2. Nature of the data set: MIC by agar dilution method, E. coli NIHJ-JC2. Conditions: Escherichia coli, NIHJJC2, read-out: minimum inhibitory concentration (MIC). In kind it is cell-based.
Data set [4] concerns Enterobac. aerogenes 0655. As to the kind of experiment: MIC by agar dilution method, Enterobac. aerogenes 0655. In kind it is cell-based. Conditions: read-out: minimum inhibitory concentration (MIC).
The test system of data set [5] is Shigella sonnei E33. As to the kind of experiment: MIC by agar dilution method, Shigella sonnei E33. In kind it is cell-based. Conditions: read-out: minimum inhibitory concentration (MIC).
Data set [6] deals with Staph. aureus MS27. Nature of the data set: MIC by agar dilution method, Staph. aureus MS27. Conditions: Staphylococcus aureus, read-out: minimum inhibitory concentration (MIC). In kind it is cell-based.
Data set [7] relates to Strept. pyogenes N.Y. 5. Nature of the data set: MIC by agar dilution method, Strept. pyogenes N.Y. 5. In kind it is cell-based. Conditions: Streptococcus pyogenes, read-out: minimum inhibitory concentration (MIC).
Data set [8] deals with Bacillus subtilis ATCC6633. As to the kind of experiment: MIC by agar dilution method, Bacillus subtilis ATCC6633. In kind it is cell-based. Conditions: read-out: minimum inhibitory concentration (MIC).
Data set [9] concerns E. coli W3630RGN14. Nature of the data set: MIC by agar dilution method, E. coli W3630RGN14. In kind it is cell-based. Conditions: Escherichia coli, W3630RGN14, read-out: minimum inhibitory concentration (MIC).
The subject of data set [10] is Kleb. pneumoniae ATCC10031. Nature of the data set: MIC by agar dilution method, Kleb. pneumoniae ATCC10031. In kind it is cell-based. Conditions: Klebsiella pneumoniae, read-out: minimum inhibitory concentration (MIC).
The test system of data set [11] is Cit. freundii GN346. As to the kind of experiment: MIC by agar dilution method, Cit. freundii GN346. Conditions: Citrobacter freundii, read-out: minimum inhibitory concentration (MIC). In kind it is cell-based.
The subject of data set [12] is Staph. epidermidis sp-al-1. As to the kind of experiment: MIC by agar dilution method, Staph. epidermidis sp-al-1. In kind it is cell-based. Conditions: Staphylococcus epidermidis, SPAL1, read-out: minimum inhibitory concentration (MIC).
Data set [13] deals with Serratia marcescens. Nature of the data set: MIC by agar dilution method, Serratia marcescens. In kind it is cell-based. Conditions: read-out: minimum inhibitory concentration (MIC).
Data set [14] relates to Salm. enteritidis Gaertner. Nature of the data set: MIC by agar dilution method, Salm. enteritidis Gaertner. Conditions: Salmonella enterica, read-out: minimum inhibitory concentration (MIC). In kind it is cell-based.
In data set [15] the test system is Staph. aureus 0119. Nature of the data set: MIC by agar dilution method, Staph. aureus 0119. In kind it is cell-based. Conditions: Staphylococcus aureus, read-out: minimum inhibitory concentration (MIC).
Data set [16] deals with Staph. aureus ATCC6538P. As to the kind of experiment: MIC by agar dilution method, Staph. aureus ATCC6538P. In kind it is cell-based. Conditions: Staphylococcus aureus, read-out: minimum inhibitory concentration (MIC).
Data set [17] has as its system E. coli W3630. Nature of the data set: MIC by agar dilution method, E. coli W3630. Conditions: Escherichia coli, read-out: minimum inhibitory concentration (MIC). In kind it is cell-based.
Data set [18] can be described thus: Solubility. In kind it is physicochemical.
In data set [19] the test system is Enterobac. cloacae GN336. As to the kind of experiment: MIC by agar dilution method, Enterobac. cloacae GN336. Conditions: read-out: minimum inhibitory concentration (MIC). In kind it is cell-based.
Data set [20] deals with Proteus rettgeri ACR. As to the kind of experiment: MIC by agar dilution method, Proteus rettgeri ACR. In kind it is cell-based. Conditions: Providencia rettgeri, read-out: minimum inhibitory concentration (MIC).

Consider `CNC1C(O)C(NC)C2OC3(O)C(OC)=CC(C)OC3OC2C1O` (stereo not drawn) [acmimycin], for which the MIC is over 100 µg/mL in data set [1]; over 100 µg/mL in [2]; 50 µg/mL (≈ 144 µM) in [3]; over 100 µg/mL in data set [4]; 25 µg/mL (≈ 72.2 µM) in data set [5]; 100 µg/mL (≈ 289 µM) in data set [6]. The MIC in [7] is 3.1 µg/mL (≈ 8.95 µM); in data set [8] it was 25 µg/mL (≈ 72.2 µM); in data set [9] it was over 100 µg/mL; in data set [10] it was 12.5 µg/mL (≈ 36.1 µM); in [11], over 100 µg/mL; in data set [12], 50 µg/mL (≈ 144 µM). In addition, the MIC in data set [13] was 25 µg/mL (≈ 72.2 µM); in data set [14] it was 25 µg/mL (≈ 72.2 µM); in [15], over 100 µg/mL; in data set [16] it was 100 µg/mL (≈ 289 µM); in data set [17] it was 25 µg/mL (≈ 72.2 µM); in data set [19] it was 50 µg/mL (≈ 144 µM). Besides, the MIC in [20] is 100 µg/mL (≈ 289 µM). The Solubility entry is “insoluble” in [18] (in acetone); “insoluble” in data set [18] (in benzene); “insoluble” in data set [18] (in ethyl acetate); “slightly soluble” in data set [18] (in lower alcohols such as methanol); “soluble” in data set [18] (in water).
